Literature values, collected in patent publication US8617906B2, “Identification and screening of triptolide target molecules” (priority 2004, dated 2013).

Assays:
[1] = in vivo; cited from earlier work
[2] = cited from earlier work
[3] = system: human T cell lymphoma (Jurkat) cells; details: cited from earlier work
IL-2 = details: cited from earlier work
AML cells = details: cited from earlier work
Akt/PKB = details: cited from earlier work
[4] = 0.5-1 μg/kg; cited from earlier work
dopaminergic neurons = details: cited from earlier work
Thioredoxin reductase = Thioredoxin reductase (Homo sapiens, UniProt Q16881); details: cited from earlier work
Thioredoxin reductase, sequence (Q16881 151-649 limits assumed): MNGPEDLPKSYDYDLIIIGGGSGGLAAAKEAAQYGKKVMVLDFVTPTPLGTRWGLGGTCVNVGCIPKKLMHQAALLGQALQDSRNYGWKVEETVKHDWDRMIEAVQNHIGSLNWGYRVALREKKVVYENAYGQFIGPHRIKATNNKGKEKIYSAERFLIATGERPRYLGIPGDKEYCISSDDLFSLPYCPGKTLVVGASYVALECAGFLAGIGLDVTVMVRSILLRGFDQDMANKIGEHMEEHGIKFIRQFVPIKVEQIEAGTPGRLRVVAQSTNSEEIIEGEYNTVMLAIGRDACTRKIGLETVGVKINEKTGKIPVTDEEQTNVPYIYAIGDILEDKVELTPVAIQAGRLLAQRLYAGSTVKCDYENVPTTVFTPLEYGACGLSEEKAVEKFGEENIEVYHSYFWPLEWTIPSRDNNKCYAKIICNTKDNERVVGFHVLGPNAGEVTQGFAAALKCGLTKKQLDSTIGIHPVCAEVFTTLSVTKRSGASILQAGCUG

In the case of 14-succinimide ester of triptolide, the “bleomycin-induced PF” value [1] is listed as “block bleomycin-induced PF”.
For CC(C)[C@]12O[C@H]1[C@@H]1O[C@]13[C@]1(O[C@H]1C[C@H]1C4=C(CC[C@@]13C)C(=O)OC4)[C@@H]2OC(=O)CCC(=O)[O-].[Na+] [PG490-88], the “conversion in vivo to triptolide” value [2] is listed as “converting in vivo to triptolide”.
In the case of CC(C)[C@]12O[C@H]1[C@@H]1O[C@]13[C@]1(O[C@H]1C[C@H]1C4=C(CC[C@@]13C)C(=O)OC4)[C@H]2F [PG763, 14-deoxy-14α-fluoro triptolide], the cytotoxicity [3] is listed as “cytotoxicity in human T cell lymphoma (Jurkat) cells” and the “inhibition of IL-2” value (IL-2) is listed as “inhibition of IL-2”.
For Cc1cc(C)c(/C=C2\C(=O)Nc3ccccc32)[nH]1 [SU-5416], the “VEGF-induced colony formation / clonogenic response” value (AML cells) is listed as “abolished” and the “VEGF-stimulated phosphorylation of Akt/PKB” value (Akt/PKB) is listed as “abolished”.
For CC(C)[C@]1(O)[C@H](Cl)[C@@H]2O[C@]23[C@]2(O[C@H]2C[C@H]2C4=C(CC[C@@]23C)C(=O)OC4)[C@@H]1O [Tripchlorolide], the “conversion in vivo to triptolide” value [2] is given as “prodrug of triptolide”, the “TNF-α and IL-2 levels in the brain” value [4] is given as “attenuates the elevation of TNF-α and IL-2 levels in the brain” and the dopamine depletion [4] is given as “attenuates dopamine depletion”. The “recovery of rats undergoing neurosurgery” value [4] was “improves recovery of rats undergoing neurosurgery”, the “sparing of SN neurons” value [4] was “significant sparing of SN neurons” and the “survival of dopaminergic neurons” value [4] was “increases the survival of dopaminergic neurons”. For the same molecule, the “dopaminergic neuron axonal elongation” value (dopaminergic neurons) was “promotes dopaminergic neuron axonal elongation”, the “protection from neurotoxic lesion induced by 1-methyl-4-phenylpyridinium ion” value (dopaminergic neurons) was “protects dopaminergic neurons from a neurotoxic lesion” and the “brain-derived neurotrophic factor mRNA expression” value (dopaminergic neurons; in situ hybridization) was “stimulates brain-derived neurotrophic factor mRNA expression”.
For CC(=O)OC[C@H]1O[C@@H]([S-])[C@H](OC(C)=O)[C@@H](OC(C)=O)[C@@H]1OC(C)=O.CCP(CC)CC.[Au+] [auranofin], the “thioredoxin reductase as drug target” value (Thioredoxin reductase) is given as “target of auranofin”.
